Test results as given in US11518996B2, “Methods and compositions for treating cancer using peptide nucleic acid-based agents” (MEMORIAL SLOAN-KETTERING CANCER CENTER, priority 2013, dated 2022).
Entries after “also recorded” stand apart in the source; their conditions may differ.

Legend:
[1] = test system: total BRAF wild type protein; test: Western blot of total BRAF protein in C918 cells; assay type: cell-based; details: 750 nM, over 72 hours
Procedure: (§1) Cells were treated for 24, 48 and 72-hour treatments with 750 nM PNA and lysed in radioimmunoprecipitation assay (RIPA) buffer supplemented with protease inhibitor cocktail tablets (Roche Diagnostics) and 1 mmol/L Na3VO4. Equal amounts of protein were loaded on 4% to 12% PAGE gels (Invitrogen). Polyvinylidene difluoride (PVDF) membranes were blocked with 5% nonfat dried milk and probed with p-MEK, MEK, p-ERK 1/2 (T202/Y204), ERK 1/2, cleaved PARP, α-tubulin (Cell Signaling Technology), BRAF (Santa Cruz Biotechnology), LC3 (Novus Biologicals) and BRAF V600E (Spring Bioscience).
(§2) FIGS. 3A-3C depict BRAF mutant and BRAF wild type protein expression in melanoma cells (C918 and OCM1A) treated with 750 nM of the PNA I-292-3 L2LP NHAc for 24, 48 or 72 hours. FIG. 3A depicts the measurement of mutant and total BRAF protein expression as measured by Western blotting in C918 and OCM1A cells. Tubulin expression was also measured as a loading control. […]
as §2, with “4A-4C” for “3A-3C”, “I-292-9 L2” for “I-292-3 L2LP”, “4A” for “3A”

BRAF [2] = test: BRAF expression by Western blot in SK MEL 7 cells; assay type: cell-based
Procedure: (§3) PNA compounds targeting the BRAF V600E gene mutation were tested against melanoma cell lines that are either BRAF wild-type (C918) or BRAF V600E mutant (OCM1A and SK-MEL 7). C918 and OCM1A are uveal melanoma cell lines while SK-MEL 7 is a cutaneous melanoma cell line. […] Cells were treated with increasing doses of several PNA derivatives for 72 hours after which the cell viability was measured and calculated relative to the untreated cells. Cells were plated in 96-well plates and treated in triplicates with the indicated concentrations of PNA derivative. Viability was assessed after 72 hours of treatment using the Cell Counting Kit 8 (CCK8) from Dojindo Molecular Technologies according to the manufacturer's instructions.
as §1

SK-MEL 7 cells = test: Cell viability assay (CCK8), BRAF V600E mutant cutaneous melanoma cells; details: increasing doses, 72 hours
Procedure: (§4) PNA compounds targeting the BRAF V600E gene mutation were tested against melanoma cell lines that are either BRAF wild type (C918) or BRAF V600E mutant (OCM1A and SK-MEL 7). C918 and OCM1A are uveal melanoma cell lines while SK-MEL 7 is a cutaneous melanoma cell line. C918 was kindly provided by Robert Folberg (University of Illinois, Chicago, Ill.). OCM1A was from Dr. William Harbour (Washington University, St. Louis, Mo.). SK-MEL 7 was from Alan Houghton (Memorial Sloan-Kettering Cancer Center, New York, N.Y.). Cells were cultured in RPMI medium supplemented with 10% FBS, 100 units/mL penicillin, and […] streptomycin and maintained at 37° C. in 5% CO2.
as §3

OCM1A = test: Xenograft mouse trial, tumor size; assay type: in vivo, Athymic mice
Procedure: Athymic mice (3 per group) were inoculated with OCM1A. After 15 days, the size of the developing tumor was sufficient for further measurement and monitoring. The treatment group was given 50 mg/kg dosage of I-292-3 L2LP-NHAc on days 15, 17, 20 and 22. […] Moreover, one week following the last dose, the average tumor size of the treated group began to shrink by 25% over 4 days.

BRAF [3] = test: BRAF expression by Western blot in OCM1A cells; assay type: cell-based
Procedure: as §3, §1

total BRAF mRNA = test: qRT-PCR of total BRAF mRNA in SK-Mel 7 cells; assay type: cell-based; details: 750 nM, 48 hours, RT-PCR, normalized with GAPDH
Procedure: (§5) C918 and OCM1A cells were treated with 750 nM PNA (I-292-3 L2LP) for 48 hours. Mutant BRAF mRNA expression in cells was quantified using RT-PCT. Specifically, cells were treated and then lysed using TRIzol Reagent® (Invitrogen). Reverse transcription of 1 μg of RNA was done using the SuperScript III First-Strand Synthesis System (Invitrogen). Quantitative real-time PCR (qRT-PCR) assays were performed using the 7300 Real Time PCR System (Applied Biosystems). TaqMan gene expression assays, which include gene-specific probe primer sets (Applied Biosystems), were used to detect the indicated genes and glyceraldehyde-3-phosphate dehydrogenase (GAPDH)/hypoxanthine phosphoribosyltransferase (HPRT) mRNA. The relative expression of each gene was calculated by the ΔΔCT method. Cells wild-type for BRAF (C918) as well as mutant cell lines (OCM1A and SK-Mel 7) were treated for 48 hours with 750 nM I-292-3 L2LP NHAc. According to FIG. 5A, BRAF^V600E mRNA expression was quantified using RT-PCR. Relative Quantity (RQ) values were normalized with GAPDH loading control and set relative to the mutant BRAF mRNA expression in untreated OCM1A cells (ND). […] According to FIG. 5B, Both BRAF^V600E and total BRAF mRNA expression in SK-Mel 7 cells were quantified using RT-PCR. RQ values were normalized with GAPDH and set relative to untreated cells. […]

[4] = Toxicity in xenograft mice by weight loss and activity; assay type: in vivo, Athymic mice; details: OCM1A xenograft mice, 50 mg/kg doses, 28 day study
Procedure: Toxicity of the tested PNA derivative was evaluated by measuring weight loss of test animals.

[5] = test system: BRAF V600E mutant protein; test: Western blot of BRAF V600E mutant protein in OCM1A cells; assay type: cell-based; details: 750 nM, over 72 hours
Procedure: as §1, §2
as §2, with “4A-4C” for “3A-3C”, “I-292-9 L2” for “I-292-3 L2LP”, “4A” for “3A”

OCM1A cells = test: Cell viability assay (CCK8), BRAF V600E mutant uveal melanoma cells; details: increasing doses, 72 hours
Procedure: as §4, §3

BRAF V600E mRNA [6] = test: qRT-PCR of BRAF V600E mRNA in SK-Mel 7 cells; assay type: cell-based; details: 750 nM, 48 hours, RT-PCR, normalized with GAPDH
Procedure: as §5

[7] = test system: total BRAF wild type protein; test: Western blot of total BRAF protein in OCM1A cells; assay type: cell-based; details: 750 nM, over 72 hours
Procedure: as §1, §2
as §2, with “4A-4C” for “3A-3C”, “I-292-9 L2” for “I-292-3 L2LP”, “4A” for “3A”

BRAF V600E mRNA [8] = test: qRT-PCR of BRAF V600E mRNA in OCM1A cells; assay type: cell-based; details: 750 nM, 48 hours, RT-PCR, normalized with GAPDH
Procedure: as §5

Row | Compound | total BRAF wild type protein in C918 cells [1] | decrease in BRAF expression, SK MEL 7 cells (BRAF [2]) | suppression of cell viability in SK-MEL 7 cells (SK-MEL 7 cells) | tumor volume regression (OCM1A; OCM1A xenograft mice, 50 mg/kg IP doses (FIG. 6A legend)) | average tumor size as percentage of the untreated control group (OCM1A; OCM1A xenograft, 50 mg/kg on days 15, 17, 20 and 22, day 28) | shrinkage of average tumor size of the treated group (OCM1A; OCM1A xenograft, 50 mg/kg, over 4 days, one week following the last dose) | decrease in BRAF expression, OCM1A cells (BRAF [3]) | total BRAF mRNA expression in SK-Mel 7 cells (total BRAF mRNA) | animal weight and activity (toxicity, words) [4] | BRAF V600E mutant protein expression in OCM1A cells [5] | suppression of cell viability in OCM1A cells (OCM1A cells) | BRAF V600E mRNA expression in SK-Mel 7 cells (BRAF V600E mRNA [6]) | total BRAF wild type protein in OCM1A cells [7] | BRAF V600E mRNA expression in OCM1A cells (BRAF V600E mRNA [8])
1 | CCCCCCCCCCCCCCCC(=O)NCCCC[C@H](NC(=O)[C@@H](CCCCN)NC(=O)[C@@H](CCCCN)NC(=O)[C@H](NC(=O)[C@@H](CCCCN)NC(=O)[C@@H](CCCNC(=N)N)NC(=O)[C@@H](CCCCN)NC(=O)[C@@H](CCCCN)NC(=O)[C@@H](CCCCN)NC(=O)[C@H]1CCCN1C(=O)[C@@H](CCCCN)NC(=O)CN(CCNC(=O)CN(CCNC(=O)CN(CCNC(=O)CN(CCNC(=O)CN(CCNC(=O)CN(CCNC(=O)CN(CCNC(=O)CN(CCNC(=O)CN(CCNC(=O)CN(CCNC(=O)CN(CCNC(=O)CN(CCNC(=O)CN(CCNC(=O)CN(CCNC(=O)CN(CCNC(=O)CN(CCNC(=O)CN(CCNC(=O)CN(CCNC(=O)[C@@H](CCCCN)NC(=O)[C@@H](CCCCN)NC(=O)[C@H](CCCCNC(=O)CCCCCCCCCCCCCCC)NC(C)=O)C(=O)Cn1ccc(N)nc1=O)C(=O)Cn1ccc(N)nc1=O)C(=O)Cn1cc(C)c(=O)[nH]c1=O)C(=O)Cn1ccc(N)nc1=O)C(=O)Cn1cnc2c(N)ncnc21)C(=O)Cn1cnc2c(N)ncnc21)C(=O)Cn1cnc2c(=O)[nH]c(N)nc21)C(=O)Cn1cnc2c(N)ncnc21)C(=O)Cn1cnc2c(=O)[nH]c(N)nc21)C(=O)Cn1cc(C)c(=O)[nH]c1=O)C(=O)Cn1cnc2c(N)ncnc21)C(=O)Cn1cnc2c(N)ncnc21)C(=O)Cn1cc(C)c(=O)[nH]c1=O)C(=O)Cn1cnc2c(N)ncnc21)C(=O)Cn1cnc2c(N)ncnc21)C(=O)Cn1cc(C)c(=O)[nH]c1=O)C(=O)Cn1cnc2c(N)ncnc21)C(=O)Cn1cc(C)c(=O)[nH]c1=O)C(C)C)C(N)=O [I-292-3 L2LP NHAc, AcNH-Lys(palmitoyl)-dLys-dLys-C CT CAAGAGTAATAATAT-dLys-dPro-dLys-dLys-dLysdArg-dLys-dVal-dLys-dLys-Lys(palmitoyl)-CONH2] | no significant reduction | 62.4% | significant suppression of cell viability | 50% | 35% | 25% | 40.3% | no observed decrease | no weight loss or changes in daily activity | decreased expression | significant suppression of cell viability | decreased significantly | no significant reduction | significantly decreased
2 | AcNH-Lys(palmitoyl)-dLys-dLys-CCTCAAGAGTAATAATAT-dLys-dArg3-dGln-dArg2-dLys2-dArg-Gly-dTyr-dLys-dLys-Lys(palmitoyl)-CONH2 [I-292-9 L2 NHAc] | no significant reduction |  | significant suppression of cell viability |  |  |  |  |  |  | decreased expression | significant suppression of cell viability |  | slight decrease; also recorded: slight reduction | 
